# Experimental data: patent EP4790048A1, “S1PR4 REGULATOR COMPOUND FOR AUTOIMMUNE DISEASE TREATMENT AND APPLICATION THEREOF” (Shengyuan Zetong (Shanghai) Pharmaceutical Co., Ltd, priority 2023, dated 2025)
# Target: T1, hS1P4 (Homo sapiens, UniProt O95977)
# T1 construct: expressed in transfected cells; host or cells: CHO
# T1 sequence (O95977 1-384): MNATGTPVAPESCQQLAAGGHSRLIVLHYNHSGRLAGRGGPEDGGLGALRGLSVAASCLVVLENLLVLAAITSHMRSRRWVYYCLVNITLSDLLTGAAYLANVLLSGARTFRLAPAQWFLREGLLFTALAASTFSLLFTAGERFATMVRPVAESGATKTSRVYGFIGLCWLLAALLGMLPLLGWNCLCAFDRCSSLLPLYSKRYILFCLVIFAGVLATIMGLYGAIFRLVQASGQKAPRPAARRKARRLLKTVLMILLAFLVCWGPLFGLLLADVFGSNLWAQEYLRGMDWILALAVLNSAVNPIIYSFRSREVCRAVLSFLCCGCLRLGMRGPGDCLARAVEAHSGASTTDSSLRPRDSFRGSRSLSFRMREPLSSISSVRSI
# Test: Tango β-arrestin recruitment luciferase assay, Tango-hS1P4-CHO
# Assay type: cell-based
# Conditions: β-arrestin recruitment; 20 h drug treatment; top 45 µM, 9 serial 5-fold dilutions; positive control 25 µM BAF-312; read-out: Tango-hS1P4-CHO EC50
# Excerpt: The Tango assay detects ligand-dependent GPCR activity through the interaction between β-arrestin and GPCRs. […] The NTEV fragment and the tetracycline transactivator (tTA), an artificial transcription factor, are fused at the C-terminus of the GPCR, while the CTEV fragment is fused to human β-arrestin 2. To enhance the stability of the interaction between GPCR and β-arrestin, a short sequence from the C-terminus of the human arginine vasopressin receptor 2 (V2 tail) is inserted between the GPCR and NTEV. The V2 tail contains multiple GRK phosphorylation sites, which strengthen β-arrestin binding upon phosphorylation. The CTEV fragment carries the stabile point mutation S219P and is truncated at residue 221 to remove the autoinhibitory C-terminal tail. Meanwhile, β-arrestin 2 is truncated to lack the entire C-terminal tail (residues 383-410 deleted). This truncation confers robust stimulus-dependent receptor desensitization, thereby improving detection sensitivity compared with wild-type β-arrestin 2. The UAS reporter construct consists of upstream activating sequence (UAS) elements, a minimal CMV promoter, and a tTA-dependent luciferase reporter gene. Therefore, constructing Tango cells requires the co-transfection of the above three plasmids into host cells. Upon GPCR activation and β-arrestin recruitment, the TEV enzyme at the β-arrestin terminus cleaves tTA from the GPCR C-terminus. The released tTA initiates tTA-dependent luciferase transcription, and compound activity is ultimately determined by measuring luminescence intensity.
# • 1) Tango cell line from was digested from the culture dish respectively. After cell counting, the cells were plated at a density of 10,000 cells per well with […] into a white opaque 96-well plate (add 60 µL D'Hanks to the surrounding wells), and incubated overnight (20 h) in a 5% CO2 incubator at 37°C. The cell density will reach approximately 90% the next day. • 2) After 20 h, 30 µL of serially diluted compound solution was added to each well. The control group was supplemented with 30 µL F12K complete medium. Each group had three replicate wells. • 3) Samples were collected after 20 h of drug treatment.
# (All compounds were tested at a final concentration of 45 µM, with 9 serial dilutions at 5-fold intervals. 1 µM BAF-312 was used as the positive control for S1PR1, and 25 µM BAF-312 was used as the positive control for S1PR4.
row,EC50 [nM],Compound
1,> 10000,"CCc1cc(/C(C)=N/OCc2ccc(-c3cnc(F)cn3)c(C)c2)ccc1CN1CCC(C(=O)O)CC1 [Compound 90, (E)-1-(2-ethyl-4-(1-(((3-methyl-4-(5-fluoropyrazin-2-yl)-benzyl)oxy)imino)ethyl)benzyl)piperidine-4-carboxylic acid]"
2,7.02 ± 0.59,"CCc1cc(/C(C)=N/OCc2ccc(-c3ccc(F)nc3)c(C)c2)ccc1CN1CC[C@H](C(=O)O)C1 [Compound 53, (S, E)-1-(2-ethyl-4-(1-(((4-(6-fluoropyridin-3-yl)-3-methylbenzyl)oxy)imino)ethyl)benzyl)pyrrolidine-3-carboxylic acid]"
3,3240,CCc1cc(/C(C)=N/OCc2cccc(C(F)(F)F)c2)ccc1CN1CC(C(=O)O)C1 [Compound 13]
4,2250,"C/C(=N\OCc1ccc(C2CCCCC2)c(C(F)(F)F)c1)c1ccc(CN2CC(C(=O)O)C2)c(Br)c1 [Compound 12, (E)-1-(2-bromo-4-(1-((4-cyclohexyl-3-(trifluoromethyl)benzyl)oxy)imino)ethyl)azetidine-3-carboxylic acid]"
5,3.33 ± 2.5,CCc1cc(/C(C)=N/OCc2ccc(C3=CCCCC3)c(C)c2)ccc1CN1CC[C@H](C(=O)O)C1 [Compound 61]
6,8.52 ± 0.21,"CCc1cc(/C(C)=N/OCc2ccc(-c3ccsc3)c(F)c2)ccc1CN1CC[C@H](C(=O)O)C1 [Compound 85, (S, E)-1-(2-ethyl-4-(1-(((3-fluoro-4-(thiophen-3-yl)benzyl)oxy)imino)ethyl)benzyl)pyrrolidine-3-carboxylic acid]"
7,5.93 ± 4.12,"CCc1cc(/C(C)=N/OCc2ccc(-c3ncc(F)cn3)c(C)c2)ccc1CN1CC[C@H](C(=O)O)C1 [Compound 77, (S, E)-1-(2-ethyl-4-(1-(((4-(5-fluoropyrimidin-2-yl)-3-methylbenzyl)oxy)imino)ethyl)benzyl)pyrrolidine-3-carboxylic acid]"

# The remaining lines, values behind:
row,Compound,EC50 [nM]
1,"CCc1cc(/C(C)=N/OCc2ccc(-c3ccc(F)nc3)c(F)c2)ccc1CN1CC[C@H](C(=O)O)C1 [Compound 69, (S, E)-1-(2-ethyl-4-(1-(((3-fluoro-4-(6-fluoropyridin-3-yl)benzyl)oxy)imino)ethyl)benzyl)pyrrolidine-3-carboxylic acid]",8.28 ± 0.38
2,CCc1cc(/C(C)=N/OCc2ccc(-c3cnn(C)c3)cc2F)ccc1CN1CC[C@H](C(=O)O)C1 [Compound 58],> 10000
3,CCc1cc(/C(C)=N/OCc2ccc(C3=CCCC3)c(C)c2)ccc1CN1CC[C@H](C(=O)O)C1 [Compound 63],5.86 ± 0.27
4,"CCc1cc(/C(C)=N/OCc2ccc(-c3ccc(F)cc3F)c(C)c2)ccc1CN1CC[C@H](C(=O)O)C1 [Compound 47, (S, E)-1-(2-ethyl-4-(1-(((2',4'-difluoro-2-methyl-[1,1'-biphenyl]-4-yl)methoxy)imino)ethyl)benzyl)pyrrolidine-3-carboxylic acid]",4.67
5,"CCc1cc(/C(C)=N/OCc2ccc(-c3ccncn3)c(C)c2)ccc1CN1CC[C@H](C(=O)O)C1 [Compound 76, (S, E)-1-(2-ethyl-4-(1-(((3-methyl-4-(pyrimidin-4-yl)benzyl)oxy)imino)ethyl)benzyl)pyrrolidine-3-carboxylic acid]",4.39 ± 0.91
6,"CCc1cc(/C(C)=N/OCc2ccc(C3CCCCC3)c(C)c2)ccc1CN1CC[C@H](C(=O)O)C1 [Compound 60, (S, E)-1-(2-ethyl-4-(1-(((4-cyclohexyl-3-methylbenzyl)oxy)imino)ethyl)benzyl)pyrrolidine-3-carboxylic acid]",71.7
7,"CCc1cc(/C(C)=N/OCc2ccc(-c3ccsc3)c(C)c2)ccc1CN1CC[C@H](C(=O)O)C1 [Compound 41, (S, E)-1-(2-ethyl-4-(1-(((3-methyl-4-(thiophen-3-yl)benzyl)oxy)imino)ethyl)benzyl)pyrrolidine-3-carboxylic acid]",2.91 ± 0.01
8,"C/C(=N\OCc1ccc(C2CCCCC2)c(C(F)(F)F)c1)c1ccc(CNCCCC(=O)O)cc1 [Compound 8, (E)-4-((4-((1-((4-cyclohexyl-3-(trifluoromethyl)benzyl)oxy)imino)ethyl)benzyl)amino)butanoic acid]",2400
